Test results from patent US9636289B2, “Composition for preventing or treating hair loss or promoting hair growth comprising secoiridoid glucoside derivatives” (priority 2012, dated 2017).
“Also recorded” adds a separate entry of the source.

How the values were obtained:
C57BL/6N mice = assay: Hair re-growth in hair-removed telogen mice, subcutaneous injection for 6 weeks (visual observation, hair length); format: in vivo, mouse; settings: for hair growth state (visual): s.c. 0.8 mg/0.1 mL in corn oil daily
hair follicles = assay: Histological analysis of the back skin (hair growth cycle, hair follicles); format: in vivo, mouse; settings: for Anagen ratio / anagen phases observed (number of cases): 4 animals per group
Text: At 6 weeks after subcutaneous injection, mice were sacrificed. Their back skin tissue samples were isolated using scissors and forceps and fixed by formalin. After dehydration with serial alcohol and xylene, the tissues were paraffinized. Paraffinized tissues were sectioned using a microtomb in a thickness of 5 μm and used alcohol and xylene to remove paraffin. Then, the tissues were stained with hematoxyline/eosin, followed by observation of histological changes in hair follicles under an optical microscope. The hair growth cycles in the tissues were pathologically diagnosed by specialists, and quantity and diameter of hair follicle were measured under an optical microscope.

β-catenin [1] = assay: Immunohistochemical test on skin tissue, β-catenin; format: in vivo, mouse; settings: 6 weeks s.c., FIG. 4
Experimental: (§1) In order to verify expression amounts of IGF1 and β-catenin related with hair growth in skin tissue, each primary antibody to IGF1 and β-catenin was diluted to 1:50, added to tissue sections, and incubated for 12 hours at room temperature. The primary antibody was diluted with the mixture of 0.1% normal goat serum (Vector Laboratories Inc.) and 0.3% Triton X-100 (Sigma) in 0.1 M phosphate buffer solution (PB). The tissue sections were washed twice at room temperature for 15 minutes in 0.1M PB. Then, secondary antibody [biotinylated anti-rabbit IgG (Vector Laboratories Inc.)] was diluted to 1:200, added to the tissue sections, and incubated for 1 hour at room temperature. The tissue sections were washed twice at room temperature for 15 minutes in 0.1M PB, soaked in peroxidase-labeled ABC solution, and incubated for 1 hour at room temperature. The tissue sections were washed twice at room temperature for 15 minutes in 0.1M PB. Then, the tissue sections were reacted for 5 min with a solution in which 30 mg of 3-3′ diaminobenzidine was dissolved in 150 ml of 0.1M PB, added with concentration of 0.005% of hydrogen peroxide, and reacted for 5 min to occur color reaction. The tissue sections were washed several times at room temperature in 0.1M PB. […]

IGF1 = assay: Immunohistochemical test on skin tissue, IGF1; format: in vivo, mouse; settings: 6 weeks s.c., FIG. 4
Experimental: as §1

Wnt10b = assay: RT-PCR gene expression in back skin tissue, Wnt10b; format: in vivo, mouse; settings: 6 weeks s.c., compared to the negative control group
Experimental: (§2) After adding 1 mL of Trizol agent to 50-100 mg of test animal skin tissues, the mixture was homogenized and centrifuged at 12,000×g for 10 min at 4° C. The supernatant was transferred to a new tube to remove fat layer. Then, 200 μl of chloroform was added to the tube, followed by vortexing. The same procedure was repeated twice and then the supernatant was transferred to a new tube, followed by addition of isopropanol and the supernatant at 1:1 ratio. The mixture was vigorously shaken 10 times and then incubated for 10 min at room temperature, followed by centrifugation at 12,000×g for 10 min at 4° C. to remove the supernatant. After adding 1 mL of 70% ethanol to the remaining pellet, it was centrifuged at 7,500×g for 5 min at 4° C. After removing the ethanol, the RNA pellet contained in the tube was dried for 5 min at 4° C. and dissolved in nuclease-free water. The RNA sample concentration was measured at a wavelength of 260 nm and 280 nm using a UV/VIS spectrophotometer (Beckman coulter, DU730) and the integrity of RNA sample was verified by agarose gel electrophoresis.
(§3) The RNA sample obtained was trasnscribed using oligo dT primer and SuperScript reverse transcriptase (GIBCO BRL, Gaithersburg, Md., USA) to synthesize cDNA. The PCR amplification was performed using the cDNA as templates and primers complementary to cDNA 5′ and 3′ flanking sequence. […]

[2] = test system: FZDR (frizzled receptor 1); assay: RT-PCR gene expression in back skin tissue, FZDR; format: in vivo, mouse; settings: 6 weeks s.c., compared to the negative control group
Experimental: as §2, §3

[3] = test system: LRP5 (low-density lipoprotein receptor-related protein 5); assay: RT-PCR gene expression in back skin tissue, LRP5; format: in vivo, mouse; settings: 6 weeks s.c., compared to the negative control group
Experimental: as §2, §3

[4] = test system: GSK3β (glycogen synthase kinase 3β); assay: RT-PCR gene expression in back skin tissue, GSK3β; format: in vivo, mouse; settings: 6 weeks s.c., compared to the negative control group
Experimental: as §2, §3

Axin = assay: RT-PCR gene expression in back skin tissue, Axin; format: in vivo, mouse; settings: 6 weeks s.c., compared to the negative control group
Experimental: as §2, §3

β-catenin [5] = assay: RT-PCR gene expression in back skin tissue, β-catenin; format: in vivo, mouse; settings: 6 weeks s.c., compared to the negative control group
Experimental: as §2, §3

[6] = test system: IGF1 (insulin-like growth factor 1); assay: RT-PCR gene expression in back skin tissue, IGF1; format: in vivo, mouse; settings: 6 weeks s.c., compared to the negative control group, FIG. 5
Experimental: as §2, §3

[7] = test system: VEGF (vascular endothelial growth factor); assay: RT-PCR gene expression in back skin tissue, VEGF; format: in vivo, mouse; settings: 6 weeks s.c., compared to the negative control group, FIG. 5
Experimental: as §2, §3

[8] = test system: HGF (hepatocyte growth factor); assay: RT-PCR gene expression in back skin tissue, HGF; format: in vivo, mouse; settings: 6 weeks s.c., compared to the negative control group, FIG. 5
Experimental: as §2, §3

[9] = test system: KGF (keratocyte growth factor); assay: RT-PCR gene expression in back skin tissue, KGF; format: in vivo, mouse; settings: 6 weeks s.c., compared to the negative control group, FIG. 5
Experimental: as §2, §3

[10] = cited from earlier work
[11] = Measurement on changes in body weight; format: in vivo, mouse; settings: initial body weights and at 6 weeks; vs negative control group (Con)
Experimental: 12 of 6-week-old male C57BL/6N mice (Orientbio) were adapted to the environment for 2 weeks. Then, they were divided into total 3 groups, the negative control group (Con), the positive control group (MXD) and oleuropein group (Ole), and used for test. The environment for animals were maintained at 21±2.0° C. and relative humidity 50±5% under 12 hours light/dark cycle. They were fed a food (chow) and water with free access.
In order to verify an effect for promoting hair growth, 8-week-old mice in telogen were used for test. Hairs of their back were removed using a clipper for mouse. They were subcutaneously injected with 0.1 mL of sample at the part, everyday. Before subcutaneous injection, the test substance oleuropein (0.8 mg/0.1 mL) and the control drug minoxidil were dissolved in corn oil to use. The negative control group was subcutaneously injected with only vehicle (corn oil). The application was performed once, every P.M. 4:00 for 6 weeks. […] To assess level of hair growth, the hair length was measured using ruler.
Body weight was measured weekly during entire test period, from the point before the subcutaneous injection of the hair restorers to the end point of the subcutaneous injection of the hair restorers.

C/C=C1/[C@H](O[C@@H]2O[C@H](CO)[C@@H](O)[C@H](O)[C@H]2O)OC=C(C(=O)OC)[C@H]1CC(=O)OCCc1ccc(O)c(O)c1 [oleuropein]
effect for promoting hair growth (visual) compared with minoxidil (C57BL/6N mice; 6 weeks s.c. injection, FIG. 1): more excellent effect for promoting hair growth than that of the minoxidil | effect for stimulating hair growth (hair length) compared with minoxidil (C57BL/6N mice; 6 weeks s.c. injection, FIG. 2): excellent effect for stimulating hair growth than that of the minoxidil | hair length (C57BL/6N mice; at 3 weeks, p<0.05): significantly increased | hair growth state (visual) (C57BL/6N mice; at 3 weeks): hairs were grown | hair length, increase compared to the negative control group (C57BL/6N mice; at 6 weeks): 62% | hair growth state (visual) (C57BL/6N mice; at 6 weeks): hairs were vigorously grown | hair follicle length / appearance (hair follicles; back skin at 6 weeks): became longer and they were expressed into skin | Histological diagnosis of hair growth cycle, individual animals (Animal ID 1-4) (hair follicles; back skin at 6 weeks after s.c. injection): Telogen; also recorded: Anagen | Anagen ratio (hair follicles; back skin at 6 weeks): 50% | anagen phases observed (number of cases) (hair follicles; back skin at 6 weeks): 2 case | diameter of the hair follicles (hair follicles; image analysis, compared to the negative control group): significantly increased | number of hair follicles (hair follicles; optical microscope 40× magnification, compared to the negative control group, FIG. 3): significantly increased | effect for increasing protein expression level of β-catenin compared with minoxidil (β-catenin [1]): more excellent effect | protein expression level of β-catenin (β-catenin [1]; vs the negative group): much more highly detected | effect for increasing protein expression level of IGF1 compared with minoxidil (IGF1): more excellent effect | protein expression level of IGF1 (IGF1; vs the negative group): much more highly detected | gene expression level of Wnt10b (Wnt10b): significantly increased | gene expression level of FZDR (frizzled receptor 1) [2]: significantly increased | gene expression level of LRP5 [3]: significantly increased | gene expression level of GSK3β [4]: significantly decreased | gene expression level of Axin (Axin): significantly decreased | gene expression level of β-catenin (β-catenin [5]): significantly increased | gene expression level of IGF1 [6]: significantly increased | gene expression level of VEGF [7]: significantly increased | gene expression level of HGF [8]: significantly increased | gene expression level of KGF [9]: significantly increased | toxicity ([10]; mouse treated with 1 g/kg (body weight) for 7 days): no toxicity | LD50 ([10]; through various experiments): may not be calculated

Nc1cc(N2CCCCC2)nc(N)[n+]1[O-] [minoxidil, reference compound]
body weight, difference between groups [11]: no significant differences | Anagen ratio (hair follicles; back skin at 6 weeks): 25% | anagen phases observed (number of cases) (hair follicles; back skin at 6 weeks): 1 case
